#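 96-well plates; 48 h exposure; 5 concentrations. Endpoints by linear interpolation between flanking doses. Not reached: highest tested concentration assigned. Here, GI50 denotes the concentration required for 50% inhibition of growth.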 Active and inactive are the calls of the source. Cut-off read from the data, not from the text of the source: active = GI50 up to about 1.1 µM and inactive = higher.
# Legend:
# Experiment in all cases: inhibition of tumour cell growth, NCI panel, 48 h
# 786-0 = test system: 786-0
# A498 = test system: A498
# A549 = test system: A549
# ACHN = test system: ACHN
# BT-549 = test system: BT-549
# CAKI-1 = test system: CAKI-1
# COLO 205 = test system: COLO 205
# DU-145 = test system: DU-145
# EKVX = test system: EKVX
# HCC 2998 = test system: HCC 2998
# HCT-116 = test system: HCT-116
# HCT-15 = test system: HCT-15
# HOP-62 = test system: HOP-62
# HOP-92 = test system: HOP-92
# HT-29 = test system: HT-29
# Hs-578T = test system: Hs-578T
# IGROV-1 = test system: IGROV-1
# K562 = test system: K562
# KM12 = test system: KM12
# LOX IMVI = test system: LOX IMVI
# M14 = test system: M14
# MCF7 = test system: MCF7
# MDA-MB-231 = test system: MDA-MB-231
# MDA-MB-435 = test system: MDA-MB-435
# MDA-N = test system: MDA-N
# MOLT-4 = test system: MOLT-4
# Malme-3M = test system: Malme-3M
# NCI-H23 = test system: NCI-H23
# NCI-H460 = test system: NCI-H460
# NCI-H522 = test system: NCI-H522
# NCI/ADR-RES = test system: NCI/ADR-RES
# OVCAR-3 = test system: OVCAR-3
# OVCAR-4 = test system: OVCAR-4
# OVCAR-5 = test system: OVCAR-5
# OVCAR-8 = test system: OVCAR-8
# PC-3 = test system: PC-3
# RPMI-8226 = test system: RPMI-8226
# RXF 393 = test system: RXF 393
# SF-268 = test system: SF-268
# SF-295 = test system: SF-295
# SF-539 = test system: SF-539
# SK-MEL-28 = test system: SK-MEL-28
# SK-MEL-2 = test system: SK-MEL-2
# SK-MEL-5 = test system: SK-MEL-5
# SK-OV-3 = test system: SK-OV-3
# SN12C = test system: SN12C
# SNB-19 = test system: SNB-19
# SNB-75 = test system: SNB-75
# SR = test system: SR
# SW-620 = test system: SW-620
# T47D = test system: T47D
# TK-10 = test system: TK-10
# U-251 = test system: U-251
# UACC-257 = test system: UACC-257
# UACC-62 = test system: UACC-62
# UO-31 = test system: UO-31
# CCRF-CEM = test system: CCRF-CEM
# HL-60 = test system: HL-60
# NCI-H226 = test system: NCI-H226
compound,measurement,setting,value
CC(C)Cn1cnc2c(SCc3ccc(Cl)cc3Cl)nc(N)nc21,GI50,786-0,23.9 µM (inactive)
same,GI50,A498,16.1 µM (inactive)
same,GI50,A549,25.1 µM (inactive)
same,GI50,ACHN,20.6 µM (inactive)
same,GI50,BT-549,29.2 µM (inactive)
same,GI50,CAKI-1,49 µM (inactive)
same,GI50,COLO 205,11.5 µM (inactive)
same,GI50,DU-145,> 100 µM (inactive)
same,GI50,EKVX,14.5 µM (inactive)
same,GI50,HCC 2998,13.9 µM (inactive)
same,GI50,HCT-116,23.2 µM (inactive)
same,GI50,HCT-15,16 µM
same,GI50,HOP-62,49.7 µM (inactive)
same,GI50,HOP-92,26.2 µM (inactive)
same,GI50,HT-29,27 µM (inactive)
same,GI50,Hs-578T,44.8 µM (inactive)
same,GI50,IGROV-1,48.8 µM (inactive)
same,GI50,K562,11.7 µM (inactive)
same,GI50,KM12,27.2 µM (inactive)
same,GI50,LOX IMVI,18.7 µM (inactive)
same,GI50,M14,32.4 µM (inactive)
same,GI50,MCF7,18.3 µM (inactive)
same,GI50,MDA-MB-231,39.1 µM (inactive)
same,GI50,MDA-MB-435,32.3 µM (inactive)
same,GI50,MDA-N,41.1 µM (inactive)
same,GI50,MOLT-4,7.57 µM (inactive)
same,GI50,Malme-3M,26.4 µM (inactive)
same,GI50,NCI-H23,26.1 µM (inactive)
same,GI50,NCI-H460,12 µM (inactive)
same,GI50,NCI-H522,14.6 µM (inactive)
same,GI50,NCI/ADR-RES,26.5 µM (inactive)
same,GI50,OVCAR-3,48.5 µM (inactive)
same,GI50,OVCAR-4,59.2 µM (inactive)
same,GI50,OVCAR-5,37.8 µM (inactive)
same,GI50,OVCAR-8,27.7 µM (inactive)
same,GI50,PC-3,16.5 µM (inactive)
same,GI50,RPMI-8226,10.1 µM (inactive)
same,GI50,RXF 393,17.9 µM (inactive)
same,GI50,SF-268,34.8 µM (inactive)
same,GI50,SF-295,23.3 µM (inactive)
same,GI50,SF-539,15.8 µM (inactive)
same,GI50,SK-MEL-28,57.1 µM (inactive)
same,GI50,SK-MEL-2,32.4 µM (inactive)
same,GI50,SK-MEL-5,10 µM (inactive)
same,GI50,SK-OV-3,> 100 µM (inactive)
same,GI50,SN12C,47.3 µM (inactive)
same,GI50,SNB-19,44.3 µM (inactive)
same,GI50,SNB-75,42.8 µM (inactive)
same,GI50,SR,4.38 µM (inactive)
same,GI50,SW-620,25.3 µM (inactive)
same,GI50,T47D,13.5 µM (inactive)
same,GI50,TK-10,23.1 µM (inactive)
same,GI50,U-251,27.5 µM (inactive)
same,GI50,UACC-257,15.5 µM (inactive)
same,GI50,UACC-62,19.8 µM (inactive)
same,GI50,UO-31,23.3 µM (inactive)
CC(C)C(Sc1nc(N)nc2nc[nH]c12)C(=O)O (configuration not stated),GI50,786-0,> 100 µM (inactive)
same,GI50,A498,> 100 µM (inactive)
same,GI50,A549,> 100 µM (inactive)
same,GI50,ACHN,> 100 µM (inactive)
same,GI50,BT-549,> 100 µM (inactive)
same,GI50,CAKI-1,> 100 µM (inactive)
same,GI50,CCRF-CEM,> 100 µM (inactive)
same,GI50,COLO 205,> 100 µM (inactive)
same,GI50,DU-145,> 100 µM (inactive)
same,GI50,EKVX,> 100 µM (inactive)
same,GI50,HCC 2998,> 100 µM (inactive)
same,GI50,HCT-116,> 100 µM (inactive)
same,GI50,HCT-15,> 100 µM
same,GI50,HL-60,> 100 µM (inactive)
same,GI50,HOP-62,> 100 µM (inactive)
same,GI50,HT-29,> 100 µM (inactive)
same,GI50,Hs-578T,> 100 µM (inactive)
same,GI50,IGROV-1,> 100 µM (inactive)
same,GI50,K562,> 100 µM (inactive)
same,GI50,KM12,> 100 µM (inactive)
same,GI50,LOX IMVI,> 100 µM (inactive)
same,GI50,M14,> 100 µM (inactive)
same,GI50,MCF7,> 100 µM (inactive)
same,GI50,MDA-MB-231,> 100 µM (inactive)
same,GI50,MDA-MB-435,> 100 µM (inactive)
same,GI50,MDA-N,> 100 µM (inactive)
same,GI50,Malme-3M,> 100 µM (inactive)
same,GI50,NCI-H226,> 100 µM (inactive)
same,GI50,NCI-H23,> 100 µM (inactive)
same,GI50,NCI-H460,> 100 µM (inactive)
same,GI50,NCI-H522,> 100 µM (inactive)
same,GI50,NCI/ADR-RES,> 100 µM (inactive)
same,GI50,OVCAR-3,> 100 µM (inactive)
same,GI50,OVCAR-4,> 100 µM (inactive)
same,GI50,OVCAR-5,> 100 µM (inactive)
same,GI50,OVCAR-8,> 100 µM (inactive)
same,GI50,PC-3,> 100 µM (inactive)
same,GI50,RPMI-8226,> 100 µM (inactive)
same,GI50,RXF 393,> 100 µM (inactive)
same,GI50,SF-268,> 100 µM (inactive)
same,GI50,SF-295,> 100 µM (inactive)
same,GI50,SK-MEL-28,> 100 µM (inactive)
same,GI50,SK-MEL-2,> 100 µM (inactive)
same,GI50,SK-MEL-5,> 100 µM (inactive)
same,GI50,SK-OV-3,> 100 µM (inactive)
same,GI50,SN12C,> 100 µM (inactive)
same,GI50,SNB-19,> 100 µM (inactive)
same,GI50,SNB-75,> 100 µM (inactive)
same,GI50,SR,> 100 µM (inactive)
same,GI50,SW-620,> 100 µM (inactive)
same,GI50,T47D,> 100 µM (inactive)
same,GI50,TK-10,> 100 µM (inactive)
same,GI50,U-251,> 100 µM (inactive)
same,GI50,UACC-257,> 100 µM (inactive)
same,GI50,UACC-62,> 100 µM (inactive)
same,GI50,UO-31,> 100 µM (inactive)

# — ChEMBL document CHEMBL1201862, “PubChem BioAssay data set” (2004)
